# According to patent US20180311342A1, “IMMUNOSTIMULATING AGENT” (AJINOMOTO CO., INC., priority 2017, published 2018):
# Columns and labels:
# Assay type in all cases: in vivo, BALB/c mice
# [1] = tested on: anti-OVA-specific IgG1 and IgG2a subclass antibody production; assay: Evaluation test of adjuvant activity (overall conclusion from anti-OVA IgG1 and IgG2a production)
# Method: 8-Week-old female BALB/c mice were divided into groups (N=6), and each group was primarily immunized by dorsal-subcutaneous administration of (1) ovalbumin (OVA) (5 μg) dissolved in saline as an antigen (OVA single administration group), (2) OVA 5 μg and Addavax™ (mixed with saline at 1:1) dissolved in saline (Addavax™ administration group) as positive control adjuvant, (3) OVA 5 μg and SZ137 0.256 μmol dissolved or dispersed in 5% α-cyclodextrin (hereinafter to be simply referred to as αCD)-added saline (SZ137 administration group), (4) OVA (5 μg) and SZ138 (0.256 μmol) dissolved or dispersed in 5% αCD-added saline (SZ138 administration group), (5) OVA (5 μg) and SZ142 (0.256 μmol) dissolved or dispersed in 5% αCD-added saline (SZ142 administration group), (6) OVA (5 μg) and SZ144 (0.256 μmol) dissolved or dispersed in 5% αCD-added saline (SZ144 administration group), (7) OVA (5 μg) and SZ145 (0.256 μmol) dissolved or dispersed in 5% αCD-added saline (SZ145 administration group), (8) OVA (5 μg) and SZ146 (0.256 μmol) dissolved or dispersed in 5% αCD-added saline (SZ146 administration group), (9) OVA (5 μg) and SZ147 (0.256 μmol) dissolved or dispersed in 5% αCD-added saline (SZ147 administration group), (10) OVA (5 μg) and SZ148 (0.256 μmol) dissolved or dispersed in 5% αCD-added saline (SZ148 administration group), each per mouse. Two week later, the secondary immunization was carried out by dorsal-subcutaneous administration of solutions or dispersions similar to those of the above-mentioned (1)-(10) again. […]
# To a 96 well plate was added 5 μg/ml OVA at 100 µl/well, and the mixture was incubated at 4° C. overnight. After incubation, the mixture was washed three times with 200 μl of PBS-T (PBS (phosphate buffered saline)+0.05% (v/v) Tween 20) per well, and blocked with 100 μl of 5% FCS (fetal calf serum)/PBS solution per well at room temperature for 1-2 hr. Thereafter, the mixture was washed three times with PBS-T (200 μl/well), a diluted serum sample (100 l/well) or the same amount of 5% FCS/PBS solution as a control was added, and the mixture was incubated at 37° C. for 1 hr. To calculate concentration of the antibody, the standard of an anti-OVA-specific IgG1 subclass antibody diluted with 2% FCS/PBS solution was added at 100 ng/ml, 50 ng/ml, 25 ng/ml, 12.5 ng/ml, 6.25 ng/ml, 3.125 ng/ml, 1.56 ng/ml, 0.781 ng/ml, 0.391 ng/ml, 0.195 ng/ml, 0.098 ng/ml, 0 ng/ml, per 1 well. When an anti-OVA-specific IgG2a subclass antibody was measured, the standard of an anti-OVA-specific IgG2a subclass antibody was added at 50 ng/ml, 25 ng/ml, 12.5 ng/ml, 6.25 ng/ml, 3.125 ng/ml, 1.56 ng/ml, 0.781 ng/ml, 0.391 ng/ml, 0.195 ng/ml, 0.098 ng/ml, 0.049 ng/ml, 0 ng/ml, per 1 well. Thereafter, similar to the samples, the mixture was washed five times with PBS-T (200 μl/well), a diluted biotinylated anti-mouse IgG1 antibody and IgG2a antibody were added (100 μl/well), and the mixture was incubated at 37° C. for 45 min. Thereafter, the mixture was washed five times with PBS-T (200 μl/well), a diluted anti-biotin-HRP antibody was added (100 μl/well), and the mixture was incubated at 37° C. for another 30 min. Thereafter, the mixture was washed five times with PBS-T (200 μl/well), TMB substrate solution was added (100 μl/well), and the mixture was incubated at room temperature for 10-15 min. Thereafter, a reaction quenching liquid (2N sulfuric acid solution) was added (50 l/well) to discontinue a color developing reaction, and the absorbance (OD Value=450 nm) was measured by a microplate reader. A standard curve was drawn from the measured OD values, and the concentration was calculated. […]
# [2] = tested on: anti-OVA-specific IgG1 subclass antibody; assay: Adjuvant activity test: anti-OVA-specific IgG1 subclass antibody in serum of OVA-immunized mice (ELISA); settings: dorsal-subcutaneous, compared to OVA single administration group
# [3] = tested on: anti-OVA-specific IgG2a subclass antibody; assay: Adjuvant activity test: anti-OVA-specific IgG2a subclass antibody in serum of OVA-immunized mice (ELISA); settings: dorsal-subcutaneous, compared to OVA single administration group
# [4] = conclusion from IgG1/IgG2a after secondary immunization, compound 0.256 μmol in 5% αCD-added saline with OVA 5 μg, dorsal-subcutaneous
# [5] = Experimental Example 4: after secondary immunization, OVA 5 μg + compound 0.256 μmol dissolved in saline (no αCD)
# [6] = conclusion from IgG1/IgG2a after primary immunization, compound 0.256 μmol in 5% αCD-added saline with OVA 5 μg, dorsal-subcutaneous
# [7] = after primary immunization, serum 2 weeks later, OVA 5 μg + compound 0.256 μmol in 5% αCD-added saline (Addavax mixed with saline at 1:1)
Compound,"adjuvant activity [1, 4]",also measured
"CCCCCCCCCCCCCCCC(=O)N[C@@H](CCCNC(=N)N)C(=O)NCCCCCCCCCCCC.Cl [SZ111, N-[(1S)-1-(dodecylcarbamoyl)-4-guanidino-butyl]hexadecanamide hydrochloride]",has an adjuvant activity,"adjuvant activity ([1]; Experimental Example 4: conclusion from IgG1/IgG2a after secondary immunization, compound dissolved in saline): has an adjuvant activity; anti-OVA-specific IgG1 subclass antibody production [2, 5]: significantly increased; anti-OVA-specific IgG2a subclass antibody production [3, 5]: significantly increased"
"CCCCCCCCCCCCCCCCCCCCCC(=O)N[C@@H](CCCNC(=N)N)C(=O)NCCCCCCCCCCCC.Cl [SZ138, N-[(1S)-1-(dodecylcarbamoyl)-4-guanidino-butyl]docosanamide hydrochloride]",have an adjuvant activity,
"CCCCCCCCCCCCCCCCCCCCCC(=O)N[C@@H](CC(C)C)C(=O)NCCCCCCCCCCC [SZ142, N-[(1S)-3-methyl-1-(undecylcarbamoyl)butyl]docosanamide]",have an adjuvant activity,
"CCCCCCCCCCCCCCCC(=O)N[C@@H](CC(C)C)C(=O)NCCCCCCCCCCCC [SZ144, N-[(1S)-1-(dodecylcarbamoyl)-3-methyl-butyl]hexadecanamide]",have an adjuvant activity,
"CCCCCCCCCCCCCCCCCCCCCC(=O)N[C@@H](C)C(=O)NCCCCCCCCCCCC [SZ145, N-[(1S)-2-(dodecylamino)-1-methyl-2-oxo-ethyl]docosanamide]",have an adjuvant activity,
"CCCCCCCCCCCCCCCCCCCCCC(=O)NC(C)(C)C(=O)NCCCCCCCCCCCC [SZ146, N-[2-(dodecylamino)-1,1-dimethyl-2-oxo-ethyl]docosanamide]",have an adjuvant activity,
"CCCCCCCCCCCCCCCCCCCCCC(=O)NCCC(=O)NCCCCCCCCCCCC [SZ147, N-[3-(dodecylamino)-3-oxo-propyl]docosanamide]",have an adjuvant activity,
"CCCCCCCCCCCCCCCCCCCCCC(=O)NCC(C)(C)C(=O)NCCCCCCCCCCCC [SZ148, N-[3-(dodecylamino)-2,2-dimethyl-3-oxo-propyl]docosanamide]",have an adjuvant activity,
"CCCCCCCCCCCCCCCCOC(=O)N[C@@H](CCCNC(=N)N)C(=O)NCCCCCCCCCCCC.Cl [SZ150, Hexadecyl N-[(1S)-1-(dodecylcarbamoyl)-4-guanidino-butyl]carbamate hydrochloride]",have an adjuvant activity,
"CCCCCCCCCCCCCCCC(=O)N[C@@H](CCCCN)C(=O)NCCCCCCCCCCCC.Cl [SZ153, N-[(1S)-5-amino-1-(dodecylcarbamoyl)pentyl]hexadecanamide hydrochloride]",have an adjuvant activity,
"CCCCCCCCCCCCCCCCCCCCCC(=O)N[C@@H](CCCC)C(=O)NCCCCCCCCCCCC [SZ155, N-[(1S)-1-(dodecylcarbamoyl)pentyl]docosanamide]",have an adjuvant activity,
"CCCCCCCCCCCCCCCCCCCCCC(=O)N1CCC(C(=O)NCCCCCCCCCCCC)CC1 [SZ156, 1-docosanoyl-N-dodecyl-piperidine-4-carboxamide]",have an adjuvant activity,
"CCCCCCCCCCCCCCCCCCCCCC(=O)N[C@@H](CCCNC(=N)N)C(=O)N(CCCCCCC)CCCCCCC.Cl [SZ159, N-[(1S)-1-(diheptylcarbamoyl)-4-guanidino-butyl]docosanamide hydrochloride]",have an adjuvant activity,
"CCCCCCCCCCCCCCCCCCCCCC(=O)N[C@@H](CCCCN)C(=O)NCCCCCCCCCCCC.Cl [SZ160, N-[(1S)-5-amino-1-(dodecylcarbamoyl)pentyl]docosanamide hydrochloride]",have an adjuvant activity,
"CCCCCCCC/C=C/CCCCCCCC(=O)N[C@@H](CCCNC(=N)N)C(=O)NCCCCCCCCCCCC.Cl [SZ161, (E)-N-[(1S)-1-(dodecylcarbamoyl)-4-guanidino-butyl]octadeca-9-enamide hydrochloride]",have an adjuvant activity,
"CCCCCCCCCCCCCCCCCCCCCC(=O)N[C@@H](CCCNC(=N)N)C(=O)NCCCCCCC.Cl [SZ163, N-[(1S)-4-guanidino-1-(heptylcarbamoyl)butyl]docosanamide hydrochloride]",have an adjuvant activity,
"CCCCCCCCCCCCCCCCCCCCCC(=O)N[C@@H](CCCN)C(=O)NCCCCCCCCCCCC.Cl [SZ165, N-[(1S)-4-amino-1-(dodecylcarbamoyl)butyl]docosanamide hydrochloride]",have an adjuvant activity,
"CCCCCCCCCCCCCCCCCCCCCC(=O)N[C@@H](CCCCNC(=N)N)C(=O)NCCCCCCCCCCCC.Cl [SZ166, N-[(1S)-1-(dodecylcarbamoyl)-5-guanidino-pentyl]docosanamide hydrochloride]",have an adjuvant activity,
"CCCCCCCCCCCCCCCCCCCCCC(=O)N[C@@H](CCCCNC(C)=O)C(=O)NCCCCCCCCCCCC [SZ167, N-[(1S)-5-acetamide-1-(dodecylcarbamoyl)pentyl]docosanamide]",have an adjuvant activity,
"CCCCCCCCCCCCCCCCNC(=O)N[C@@H](CCCNC(=N)N)C(=O)NCCCCCC.Cl [SZ168, (2S)-5-guanidino-2-(hexadecylcarbamoylamino)-N-hexyl-pentanamide hydrochloride]",have an adjuvant activity,
"CCCCCCCCCCCCCCCCOC(=O)N[C@@H](CCCNC(=N)N)C(=O)NCCCCCC.Cl [SZ169, Hexadecyl N-[(1S)-4-guanidino-1-(hexylcarbamoyl)butyl]carbamate hydrochloride]",have an adjuvant activity,
"CCCCCCCCCCCCCCCCCCCCCC(=O)N[C@@H](CCCCNC(=N)N)C(=O)NCCCCCC.Cl [SZ170, N-[(1S)-5-guanidino-1-(hexylcarbamoyl)pentyl]docosanamide hydrochloride]",have an adjuvant activity,
"CCCCCCCCCCCCCCCCCCCC(=O)N[C@@H](CCCNC(=N)N)C(=O)NCCCCCCCCCCCC.Cl [SZ180, N-[(1S)-1-(dodecylcarbamoyl)-4-guanidino-butyl]icosanamide hydrochloride]",have an adjuvant activity,"adjuvant activity [1, 6]: have an adjuvant activity; anti-OVA-specific IgG1 subclass antibody production [2, 7]: significant enhancement; anti-OVA-specific IgG2a subclass antibody production [3, 7]: significant enhancement"
"CCCCCCCCCCCCCCCC(=O)N[C@@H](CCCNC(=N)N)C(=O)NCCCCCCCC.Cl [SZ181, N-[(1S)-4-guanidino-1-(octylcarbamoyl)butyl]hexadecanamide hydrochloride]",have an adjuvant activity,"adjuvant activity [1, 6]: have an adjuvant activity; anti-OVA-specific IgG1 subclass antibody production [2, 7]: a tendency toward increase was found; anti-OVA-specific IgG2a subclass antibody production [3, 7]: a tendency toward increase was found"
